Blank lines part the entries; values can stand above or below the compound they belong to.
Legend:
[1] = test system: TGF-β-stimulated SMAD3 phosphorylation in BEAS-2B cells; assay: Cellular ALK5 potency assay, inhibition of TGF-β stimulated pSMAD3 formation in BEAS-2B cells; format: cell-based; conditions: Homo sapiens, pSMAD3, TGF-β 10 ng/mL, read-out: BEAS2B pIC50 (converted)
How it was run: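 Human lung epithelial BEAS-2B cells were pre-treated with compound for 1 h at 37 °C, then stimulated with TGF-β (final 10 ng/mL) for 30 min before lysis. pSMAD3 was quantified by AlphaLISA and pIC50 derived from dose-dependent signal change versus TGF-β-stimulated untreated cells.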

[2] = molecular target: T1, recombinant human ALK5 (TGF-βR1) protein (Homo sapiens, UniProt P36897); assay: Biochemical ALK5 (TGF-βR1) assay to measure pKi (LANCE Ultra ULight kinase assay); conditions: apparent pKi, converted from pIC50 by Cheng-Prusoff
T1 construct: purchased Life Technologies PR9075A
T1 sequence (P36897 34-503): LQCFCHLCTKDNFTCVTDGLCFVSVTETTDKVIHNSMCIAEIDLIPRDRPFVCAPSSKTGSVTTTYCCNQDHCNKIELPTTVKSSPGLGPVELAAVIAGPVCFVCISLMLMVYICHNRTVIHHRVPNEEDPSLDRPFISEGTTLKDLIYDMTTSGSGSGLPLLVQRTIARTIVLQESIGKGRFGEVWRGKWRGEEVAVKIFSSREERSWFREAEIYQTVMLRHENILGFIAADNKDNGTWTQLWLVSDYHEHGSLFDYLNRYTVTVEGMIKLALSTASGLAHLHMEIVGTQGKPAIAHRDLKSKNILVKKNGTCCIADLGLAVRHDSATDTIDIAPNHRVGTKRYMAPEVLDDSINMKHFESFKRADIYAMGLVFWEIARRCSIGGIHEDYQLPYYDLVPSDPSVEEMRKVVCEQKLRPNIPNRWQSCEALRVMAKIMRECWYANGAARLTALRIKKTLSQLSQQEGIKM
How it was run: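 Read-out was LANCE Ultra TR-FRET with a europium anti-phospho-Topo IIα Thr1342 antibody after EDTA quench. Kinase reaction ran 60 min at 37 °C with ATP added from a 125 μM 5× stock, after 60 min compound–enzyme equilibration at room temperature. Values are pKi from Cheng-Prusoff conversion of fitted pIC50.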

Structure (SMILES): Cc1nc(-c2nccc(Nc3ccnc(Nc4ccc(N5CCC(N6CCN(C)CC6)CC5)cc4)n3)n2)ccc1F [Compound 542, N4-[2-(5-fluoro-6-methyl-2-pyridyl)pyrimidin-4-yl]-N2-[4-[4-(4-methylpiperazin-1-yl)-1-piperidyl]phenyl]pyrimidine-2,4-diamine]
IC50 [1]: 25.1 to 158 nM
Ki [2]: 0.0398 to 0.316 nM

Structure (SMILES): Cc1cccc(-c2nccc(Nc3ccnc(Nc4csc(C(=O)O[C@@H]5CCNC5)c4)n3)n2)n1 [Compound 543, [(3R)-pyrrolidin-3-yl] 4-[[4-[[2-(6-methyl-2-pyridyl)pyrimidin-4-yl]amino]pyrimidin-2-yl]amino]thiophene-2-carboxylate]
IC50 [1]: 25.1 to 158 nM
Ki [2]: 0.0398 to 0.316 nM

Structure (SMILES): Cc1cccc(-c2nccc(Nc3ccnc(Nc4csc(C(=O)O[C@H]5CCNC5)c4)n3)n2)n1 [Compound 544, [(3S)-pyrrolidin-3-yl] 4-[[4-[[2-(6-methyl-2-pyridyl)pyrimidin-4-yl]amino]pyrimidin-2-yl]amino]thiophene-2-carboxylate]
IC50 [1]: 25.1 to 158 nM
Ki [2]: 0.0398 to 0.316 nM

Structure (SMILES): Cc1cccc(-c2nccc(Nc3ccnc(Nc4ccc(C(=O)OCC5CNC5)nc4)n3)n2)n1 [Compound 545, azetidin-3-ylmethyl 5-((4-((2-(6-methylpyridin-2-yl)pyrimidin-4-yl)amino)pyrimidin-2-yl)amino)picolinate]
IC50 [1]: 25.1 to 158 nM
Ki [2]: 0.0398 to 0.316 nM

Structure (SMILES): Cc1cccc(-c2nccc(Nc3ccnc(Nc4ccc(C(=O)O[C@@H]5CCNC5)nc4)n3)n2)n1 [Compound 546, [(3R)-pyrrolidin-3-yl] 5-[[4-[[2-(6-methyl-2-pyridyl)pyrimidin-4-yl]amino]pyrimidin-2-yl]amino]pyridine-2-carboxylate]
IC50 [1]: 25.1 to 158 nM
Ki [2]: 0.0398 to 0.316 nM

Structure (SMILES): Cc1cccc(-c2nccc(Nc3ccnc(Nc4ccc(C(=O)O[C@H]5CCNC5)nc4)n3)n2)n1 [Compound 547, [(3S)-pyrrolidin-3-yl] 5-[[4-[[2-(6-methyl-2-pyridyl)pyrimidin-4-yl]amino]pyrimidin-2-yl]amino]pyridine-2-carboxylate]
IC50 [1]: 25.1 to 158 nM
Ki [2]: 0.0398 to 0.316 nM

Structure (SMILES): Cc1cccc(-c2nccc(Nc3ccnc(Nc4cncc(C(=O)OCC5CNC5)c4)n3)n2)n1 [Compound 548, azetidin-3-ylmethyl 5-[[4-[[2-(6-methyl-2-pyridyl)pyrimidin-4-yl]amino]pyrimidin-2-yl]amino]pyridine-3-carboxylate]
IC50 [1]: 25.1 to 158 nM
Ki [2]: 0.398 to 3.16 nM

Structure (SMILES): Cc1cccc(-c2nccc(Nc3ccnc(Nc4cncc(C(=O)O[C@@H]5CCNC5)c4)n3)n2)n1 [Compound 549, (R)-pyrrolidin-3-yl 5-((4-((2-(6-methylpyridin-2-yl)pyrimidin-4-yl)amino)pyrimidin-2-yl)amino)nicotinate]
IC50 [1]: 25.1 to 158 nM
Ki [2]: 0.398 to 3.16 nM

Continued, in another order:

Ki [2]: 0.398 to 3.16 nM
Structure (SMILES): Cc1cccc(-c2nccc(Nc3ccnc(Nc4cncc(C(=O)O[C@H]5CCNC5)c4)n3)n2)n1 [Compound 550, [(3S)-pyrrolidin-3-yl] 5-[[4-[[2-(6-methyl-2-pyridyl)pyrimidin-4-yl]amino]pyrimidin-2-yl]amino]pyridine-3-carboxylate]
IC50 [1]: 25.1 to 158 nM

Ki [2]: 0.398 to 3.16 nM
Structure (SMILES): Cc1cccc(-c2nccc(Nc3ccnc(Nc4nc(C(=O)OCCN5CCNCC5)cs4)n3)n2)n1 [Compound 551, 2-piperazin-1-ylethyl 2-[[4-[[2-(6-methyl-2-pyridyl)pyrimidin-4-yl]amino]pyrimidin-2-yl]amino]thiazole-4-carboxylate]
IC50 [1]: 200 to 1260 nM

Ki [2]: 0.0398 to 0.316 nM
Structure (SMILES): Cc1cccc(-c2nccc(Nc3ccnc(Nc4ccc(C(=O)OCCN5CCNCC5)nc4)n3)n2)n1 [Compound 552, 2-piperazin-1-ylethyl 5-[[4-[[2-(6-methyl-2-pyridyl)pyrimidin-4-yl]amino]pyrimidin-2-yl]amino]pyridine-2-carboxylate]
IC50 [1]: 25.1 to 158 nM

Ki [2]: 0.398 to 3.16 nM
Structure (SMILES): Cc1cccc(-c2nccc(Nc3ccnc(Nc4cccc(C(=O)OCCN5CCNCC5)c4)n3)n2)n1 [Compound 553, 2-piperazin-1-ylethyl 3-[[4-[[2-(6-methyl-2-pyridyl)pyrimidin-4-yl]amino]pyrimidin-2-yl]amino]benzoate]
IC50 [1]: 25.1 to 158 nM

Ki [2]: 0.0398 to 0.316 nM
Structure (SMILES): Cc1cccc(-c2nccc(Nc3ccnc(Nc4csc(C(=O)OCCN5CCNCC5)c4)n3)n2)n1 [Compound 554, 2-piperazin-1-ylethyl 4-[[4-[[2-(6-methyl-2-pyridyl)pyrimidin-4-yl]amino]pyrimidin-2-yl]amino]thiophene-2-carboxylate]
IC50 [1]: 25.1 to 158 nM

Ki [2]: 0.0398 to 0.316 nM
Structure (SMILES): Fc1cc(F)c(-c2nccc(Nc3ccnc(Nc4ccc(N5CCNCC5)cc4)n3)n2)cc1Cl [Compound 556, N4-(2-(5-chloro-2,4-difluorophenyl)pyrimidin-4-yl)-N2-(4-(piperazin-1-yl)phenyl)pyrimidine-2,4-diamine]
IC50 [1]: 25.1 to 158 nM

Ki [2]: 0.0398 to 0.316 nM
Structure (SMILES): Cc1cccc(-c2nccc(Nc3ccnc(Nc4ccc(C(=O)OCC56CNCC5C6)nc4)n3)n2)n1 (stereo not drawn) [Compound 557, 3-azabicyclo[3.1.0]hexan-1-ylmethyl 5-[[4-[[2-(6-methyl-2-pyridyl)pyrimidin-4-yl]amino]pyrimidin-2-yl]amino]pyridine-2-carboxylate]
IC50 [1]: 200 to 1260 nM

Ki [2]: 0.0398 to 0.316 nM
Structure (SMILES): Cc1cccc(-c2nccc(Nc3ccnc(Nc4ccc(C(=O)OCCC5CCNCC5)nc4)n3)n2)n1 [Compound 558, 2-(4-piperidyl)ethyl 5-[[4-[[2-(6-methyl-2-pyridyl)pyrimidin-4-yl]amino]pyrimidin-2-yl]amino]pyridine-2-carboxylate]
IC50 [1]: 25.1 to 158 nM

Ki [2]: 0.0398 to 0.316 nM
Structure (SMILES): Cc1cccc(-c2nccc(Nc3ccnc(Nc4csc(C(=O)OCCNC5CNC5)c4)n3)n2)n1 [Compound 560, 2-(azetidin-3-ylamino)ethyl 4-[[4-[[2-(6-methyl-2-pyridyl)pyrimidin-4-yl]amino]pyrimidin-2-yl]amino]thiophene-2-carboxylate]
IC50 [1]: 25.1 to 158 nM

Ki [2]: 0.0398 to 0.316 nM
Structure (SMILES): Cc1cccc(-c2nccc(Nc3ccnc(Nc4ccc(C(=O)OC5CCNCC5)nc4)n3)n2)n1 [Compound 561, 4-piperidyl 5-[[4-[[2-(6-methyl-2-pyridyl)pyrimidin-4-yl]amino]pyrimidin-2-yl]amino]pyridine-2-carboxylate]
IC50 [1]: 25.1 to 158 nM

Ki [2]: 0.0398 to 0.316 nM
Structure (SMILES): Cc1cccc(-c2nccc(Nc3ccnc(Nc4ccc(C(=O)O[C@H](C)C5CCNCC5)nc4)n3)n2)n1 [Compound 562, [(1R)-1-(4-piperidyl)ethyl] 5-[[4-[[2-(6-methyl-2-pyridyl)pyrimidin-4-yl]amino]pyrimidin-2-yl]amino]pyridine-2-carboxylate]
IC50 [1]: 200 to 1260 nM

Ki [2]: 0.0398 to 0.316 nM
Structure (SMILES): Cc1cccc(-c2nccc(Nc3ccnc(Nc4csc(C(=O)OC[C@H]5CC[C@@H](N)CC5)c4)n3)n2)n1 [Compound 563, (4-aminocyclohexyl)methyl 4-[[4-[[2-(6-methyl-2-pyridyl)pyrimidin-4-yl]amino]pyrimidin-2-yl]amino]thiophene-2-carboxylate]
IC50 [1]: 200 to 1260 nM

Ki [2]: 3.98 to 31.6 nM
Structure (SMILES): Cc1cccc(-c2nccc(Nc3ccnc(Nc4ccc(C(=O)OCC5CNC5)cn4)n3)n2)n1 [Compound 564, azetidin-3-ylmethyl 6-[[4-[[2-(6-methyl-2-pyridyl)pyrimidin-4-yl]amino]pyrimidin-2-yl]amino]pyridine-3-carboxylate]
IC50 [1]: 200 to 1260 nM

— patent US20230399312A1, “SUBSTITUTED PYRIMIDINES AND METHODS OF USE” (THERAVANCE BIOPHARMA R&D IP, LLC, priority 2020, published 2023)
